Laboratory results taken from ChEMBL document CHEMBL3045163, “Synthesis of benzothiazole derivatives having acetamido and carbothioamido pharmacophore as anticonvulsant agents” (Med Chem Res, 2012).
Calls of active or inactive are those of the source. No cut-off for these calls is given here.

Experiments:
[1] = tested on: Mus musculus; test: Antidepressant activity in Mus musculus (mouse) assessed as immobility time at 100 mg/kg, ip administered 60 min before test measured during last 4 min of 6 min testing period; type: functional; conditions: route intraperitoneal
[2] = Octanol-phosphate buffer partition coefficient, log P of the compound; type: physicochemical
[3] = tested on: Mus musculus; test: Neurotoxicity in Mus musculus (mouse) assessed as motor impairment at 300 mg/kg, ip after 4 hr by rotorod test; type: toxicity, organism-based; set-up: dose 300 mg/kg, route intraperitoneal; conditions: in vivo
[4] = tested on: Mus musculus; test: Neurotoxicity in Mus musculus (mouse) assessed as motor impairment at 300 mg/kg, ip after 0.5 hr by rotorod test; type: toxicity, organism-based; set-up: dose 300 mg/kg, route intraperitoneal; conditions: in vivo
[5] = tested on: Mus musculus; test: Anticonvulsant activity in ip dosed Mus musculus (mouse) assessed as protection against subcutaneous pentylenetetrazole-induced seizure after 4 hr; type: functional; conditions: read-out: MED
[6] = tested on: Mus musculus; test: Anticonvulsant activity in ip dosed Mus musculus (mouse) assessed as protection against subcutaneous pentylenetetrazole-induced seizure after 0.5 hr; type: functional; conditions: read-out: MED
[7] = tested on: Mus musculus; test: Anticonvulsant activity in ip dosed Mus musculus (mouse) assessed as protection against maximal electroshock-induced seizure after 4 hr; type: functional; conditions: read-out: MED
[8] = tested on: Mus musculus; test: Anticonvulsant activity in ip dosed Mus musculus (mouse) assessed as protection against maximal electroshock-induced seizure after 0.5 hr; type: functional; conditions: read-out: MED
[9] = tested on: Mus musculus; test: Neurotoxicity in ip dosed Mus musculus (mouse) assessed as motor impairment after 4 hr by rotorod test; type: toxicity, organism-based; conditions: in vivo
[10] = tested on: Mus musculus; test: Neurotoxicity in ip dosed Mus musculus (mouse) assessed as motor impairment after 0.5 hr by rotorod test; type: toxicity, organism-based; conditions: in vivo
[11] = tested on: Mus musculus; test: Anticonvulsant activity in Mus musculus (mouse) assessed as protection against subcutaneous pentylenetetrazole-induced seizure at 300 mg/kg, ip after 4 hr; type: functional, organism-based; set-up: dose 300 mg/kg
[12] = tested on: Mus musculus; test: Anticonvulsant activity in Mus musculus (mouse) assessed as protection against subcutaneous pentylenetetrazole-induced seizure at 300 mg/kg, ip after 0.5 hr; type: functional, organism-based; set-up: dose 300 mg/kg
[13] = tested on: Mus musculus; test: Anticonvulsant activity in Mus musculus (mouse) assessed as protection against maximal electroshock-induced seizure at 300 mg/kg, ip after 0.5 hr; type: functional, organism-based; set-up: dose 300 mg/kg
[14] = tested on: Mus musculus; test: Anticonvulsant activity in Mus musculus (mouse) assessed as protection against maximal electroshock-induced seizure at 300 mg/kg, ip after 4 hr; type: functional, organism-based; set-up: dose 300 mg/kg

Row | logP [2] | Compound | Time [1] | Activity [3] | Activity [4] | minimal effective dose [5] | minimal effective dose [6] | minimal effective dose [7] | minimal effective dose [8] | MED [9] | MED [10] | Activity [11] | Activity [12] | Activity [13] | Activity [14]
1 | 3.88 | O=C(CNc1ccc(F)cc1)Nc1nc2ccc(Cl)cc2s1 | 169 s | Non-toxic | Non-toxic | 300 mg/kg | 100 mg/kg | 100 mg/kg | 100 mg/kg | – | – | – | – | – | –
2 | 5.16 | COc1ccc(/C=N/NC(=S)Nc2nc3ccc(Cl)cc3s2)cc1 | 181 s | – | – | – | – | 300 mg/kg | – | 300 mg/kg | 100 mg/kg | inactive | inactive | inactive | –
3 | 3.16 | O=C(CN1CCCCC1)Nc1nc2ccc(Cl)cc2s1 | 145 s | – | Non-toxic | – | 100 mg/kg | 100 mg/kg | 30 mg/kg | 300 mg/kg | – | inactive | – | – | –
4 | – | NC(=O)N1c2ccccc2C=Cc2ccccc21 [CARBAMAZEPINE] | 179 s | – | – | 100 mg/kg | 100 mg/kg | 100 mg/kg | 30 mg/kg | 300 mg/kg | 100 mg/kg | – | – | – | –
5 | 3.02 | CC(C)(C)NCC(=O)Nc1nc2ccc(Cl)cc2s1 | 129 s | – | Non-toxic | 300 mg/kg | 100 mg/kg | 100 mg/kg | 30 mg/kg | 300 mg/kg | – | – | – | – | –
6 | 4.24 | O=C(CNc1ccc(Cl)cc1)Nc1nc2ccc(Cl)cc2s1 | 161 s | – | Non-toxic | – | – | – | 100 mg/kg | 100 mg/kg | – | inactive | inactive | – | inactive
7 | 5.52 | S=C(N/N=C/c1ccc(Cl)cc1)Nc1nc2ccc(Cl)cc2s1 | 191 s | Non-toxic | – | – | – | – | 300 mg/kg | – | 300 mg/kg | inactive | inactive | – | inactive
8 | 4.86 | S=C(N/N=C/c1ccccc1)Nc1nc2ccc(Cl)cc2s1 | 162 s | – | – | – | – | 300 mg/kg | – | 300 mg/kg | 300 mg/kg | inactive | inactive | inactive | –
9 | 6.12 | O=C(CN(c1ccccc1)c1ccccc1)Nc1nc2ccc(Cl)cc2s1 | 196 s | Non-toxic | – | – | – | – | 300 mg/kg | – | 300 mg/kg | inactive | inactive | – | inactive
10 | 5.22 | Fc1ccc(/C=N/NC(=S)Nc2nc3ccc(Cl)cc3s2)cc1 | 188 s | – | – | 100 mg/kg | 100 mg/kg | 30 mg/kg | 30 mg/kg | 100 mg/kg | 100 mg/kg | – | – | – | –
11 | 5.46 | S=C(N/N=C/c1ccccc1Cl)Nc1nc2ccc(Cl)cc2s1 | 177 s | – | Non-toxic | – | – | – | 300 mg/kg | 100 mg/kg | – | inactive | inactive | – | inactive
12 | 4.62 | O=C(Cn1ccc2ccccc21)Nc1nc2ccc(Cl)cc2s1 | 152 s | – | – | 300 mg/kg | – | 300 mg/kg | 100 mg/kg | 300 mg/kg | 100 mg/kg | – | inactive | – | –
13 | 2.14 | O=C(Cn1ccnc1)Nc1nc2ccc(Cl)cc2s1 | 137 s | Non-toxic | Non-toxic | 100 mg/kg | 100 mg/kg | 30 mg/kg | 30 mg/kg | – | – | – | – | – | –
14 | 5.24 | CN(C)c1ccc(/C=N/NC(=S)Nc2nc3ccc(Cl)cc3s2)cc1 | 172 s | – | – | – | – | – | – | 100 mg/kg | 100 mg/kg | inactive | inactive | inactive | inactive
15 | 4.78 | Oc1ccc(/C=N/NC(=S)Nc2nc3ccc(Cl)cc3s2)cc1 | 169 s | – | Non-toxic | – | 100 mg/kg | – | 100 mg/kg | 100 mg/kg | – | inactive | – | – | inactive
16 | 4.68 | O=[N+]([O-])c1ccc(/C=N/NC(=S)Nc2nc3ccc(Cl)cc3s2)cc1 | 157 s | – | – | 300 mg/kg | 300 mg/kg | – | 100 mg/kg | 300 mg/kg | 300 mg/kg | – | – | – | inactive
17 | – | O=C1NC(=O)C(c2ccccc2)(c2ccccc2)N1 [PHENYTOIN] | – | – | – | – | – | 30 mg/kg | 30 mg/kg | 100 mg/kg | 100 mg/kg | inactive | inactive | – | –
18 | 2.32 | O=C(CN1CCOCC1)Nc1nc2ccc(Cl)cc2s1 | 140 s | Non-toxic | Non-toxic | 100 mg/kg | 100 mg/kg | 30 mg/kg | 30 mg/kg | – | – | – | – | – | –
